Entries after “also recorded” stand apart in the source; their conditions may differ. Like-named read-outs stand apart in the source and are kept apart here.
Tests used:
[1] = target: T1, AT1 receptor (Homo sapiens, UniProt P30556); experiment: IC50 / affinity to AT1 receptor (stated, not measured in the patent); type: binding; conditions: corresponding to the nM values; read-out: IC50 to AT1 receptor, as mass concentration (converted)
T1 sequence (P30556 1-359): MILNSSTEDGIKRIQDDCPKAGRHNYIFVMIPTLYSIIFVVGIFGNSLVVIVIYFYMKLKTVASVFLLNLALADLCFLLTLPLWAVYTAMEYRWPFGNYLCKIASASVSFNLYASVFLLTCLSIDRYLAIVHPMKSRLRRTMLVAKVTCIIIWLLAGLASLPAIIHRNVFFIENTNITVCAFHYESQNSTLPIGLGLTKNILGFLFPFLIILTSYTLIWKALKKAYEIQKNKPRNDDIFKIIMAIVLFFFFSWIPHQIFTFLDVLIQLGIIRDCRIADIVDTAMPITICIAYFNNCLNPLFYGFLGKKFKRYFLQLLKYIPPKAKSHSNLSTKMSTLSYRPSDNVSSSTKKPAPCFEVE

[2] = target: T1, AT1 receptor; conditions: cited from earlier work
[3] = aqueous media; compared with valsartan; cited from earlier work
[4] = system: mouse mean blood pressure (MBP); experiment: Liposomal valsartan activity on mice blood pressure (CODA monitor, tail); type: in vivo
Experimental: The development of liposomal ARB's aimed at delivering the drugs to the tumor and exert their activity there while avoiding the systemic effect of the drug on blood pressure. […] MBP was measured using CODA monitor device allowing measurement of blood pressure in mouse tail.
Four mice were tested before drug administration and 2, 24 and 48 h after drug administration. For each mouse, at least 3 measurements (and up to 10) were recorded for each time point.

CCOc1nc2cccc(C(=O)O)c2n1Cc1ccc(-c2ccccc2-c2nnn[nH]2)cc1 [Candesartan, 2-ethoxy-3-[[4-[2-(2H-tetrazol-5-yl)phenyl]phenyl]methyl]benzimidazole-4-carboxylic acid]
IC50 [1]: 2.95 nM | IC50 [2]: 3 nM | affinity for AT1 receptor ([2]; versus losartan, telmisartan, valsartan (Bhuiyan 2013)): highest affinity | solubility [3]: very limited; also recorded: not soluble

CCCCC(=O)N(Cc1ccc(-c2ccccc2-c2nnn[nH]2)cc1)[C@H](C(=O)O)C(C)C [Valsartan, (2S)-3-methyl-2-[pentanoyl-[[4-[2-(2H-tetrazol-5-yl)phenyl]phenyl]methyl]amino]butanoic acid]
lowering of MBP ([4]; 25 mg/kg, 2 h after administration): ~ 35 units | MBP at t=24 h ([4]; 25 mg/kg, 24 h after administration): returned to baseline | effect on MBP 2 h after injection ([4]; 2 h after injection): reduction in MBP | MBP after administration ([4]; reduction from 105 mmHg): 70 mmHg

Reference: US12714669B2, “Liposomal formulations comprising AT1 receptor blockers and uses thereof” (YISSUM RESEARCH DEVELOPMENT COMPANY OF THE HEBREW …, priority 2020, dated 2026)
